Assay results: US20030109486A1 (priority 2001, published 2003)
Entries after “also recorded” stand apart in the source; their conditions may differ. Like-named read-outs stand apart in the source and are kept apart here.

Assays:
[1] = Solubility in isotonic aqueous solutions of sodium chloride; settings: salts
SA + AV node = settings: Cells/Organ; cited from earlier work
[2] = cited from earlier work
[3] = low doses, intravenous; cited from earlier work
[4] = cited from earlier work; remark: listed apart in the source
[5] = system: tissue type plasminogen activator (tPA); settings: infusions in humans; cited from earlier work
Airway mucosa [6] = settings: Cells/Organ; cited from earlier work
[7] = intravenous, cited from earlier work
[8] = cited from earlier work; for whole blood ATP concentration, higher than the pretreatment values: 24 hr of infusion, average
[9] = Animals; cited from earlier work
[10] = in vivo; cited from earlier work
[11] = Patients; cited from earlier work
Airway mucosa [12] = settings: Patients, cited from earlier work; for Mucociliary clearance: epithelia of cystic fibrosis patients; for Chloride secretion: observed in epithelia of healthy participants and cystic fibrosis patients
[13] = system: non-small cell lung cancer; settings: cited from earlier work
[14] = infusions; rat kidney, rat lung, dog heart, rabbit lung, rat gut; cited from earlier work
[15] = intravenous; cited from earlier work
[16] = single arm study; cited from earlier work
Tumor [17] = settings: Animals; cited from earlier work
[18] = Stability of ATP solutions; assay type: physicochemical
Experimental: An example of a clinical procedure in the treatment of ALI and ARDS is as follows. After determination of baseline, pre-treatment hemodynamic variables, blood gases and pH values, an ATP dose escalation procedure is initiated. ATP is provided as a sterile solution in single use vials. […] Storage of the clinical solution is at controlled refrigerated temperature (2° C.-8° C. ). […] The concentration of the final sterile solution for the infusion is 8 mg/ml.
The product must be stored at controlled refrigerated temperature (2° C.-[…]). At pH 6.7-7.2, the sodium salt in aqueous solution is stable.

[19] = intramuscular; cited from earlier work
[20] = Patients; cited from earlier work; remark: listed apart in the source
[21] = Cells/Organ; cited from earlier work
[22] = Animals; cited from earlier work; remark: listed apart in the source
[23] = Cells/Organ; cited from earlier work; remark: listed apart in the source
[24] = Animals; cited from earlier work; remark: listed apart in the source
Tumor [25] = settings: Cells/Organ; cited from earlier work
Tumor [26] = settings: Patients; cited from earlier work
[27] = cited from earlier work; remark: listed apart in the source
[28] = Patients; cited from earlier work; remark: listed apart in the source
[29] = Patients; cited from earlier work; remark: listed apart in the source
[30] = of seven children; infused directly into the pulmonary artery for 30 minutes to 30 hours; cited from earlier work
[31] = administration directly into the pulmonary artery or into the superior vena cava
[32] = healthy individuals, COPD patients, patients after surgical repair of congenital heart defects
[33] = ATP infusion rate 500-1000 μg/kg/min
[34] = ATP infusion rate ≦100 μg/kg/min
[35] = 50 or 65 microgram/kg/min for 96 hr, once every 4 weeks

SMILES: Nc1ncnc2c1ncn2[C@@H]1O[C@H](COP(=O)(O)OP(=O)(O)O)[C@@H](O)[C@H]1O [ADP, adenosine 5′-diphosphate]
- solubility in isotonic aqueous solutions of sodium chloride [1]: high solubility

SMILES: Nc1ncnc2c1ncn2[C@@H]1O[C@H](COP(=O)(O)OP(=O)(O)OP(=O)(O)O)[C@@H](O)[C@H]1O [ATP, adenosine 5′-triphosphate]
- SA + AV node conduction (SA + AV node): Inhibited
- severity of adverse experiences ([2]; 30-hr infusions, 20 up to 75 microgram/kg/min): generally mild
- Quality of Life domains ([2]; in vivo): improvements
- body weight ([2]; in vivo): beneficial effects
- electrocardiograms in patients with chest discomfort ([2]; in vivo): did not exhibit changes suggestive of myocardial ischemia
- time to resolution of all side effects after lowering the rate of ATP infusion ([2]; in vivo): within minutes
- voluntary muscle strength ([2]; in vivo): beneficial effects
- resolving pulmonary hypertension [3]: effective
- Pulmonary Arterial Pressure [4, 31]: reducing
- Pulmonary Vascular Resistance [4, 31]: reducing
- Systemic Arterial Pressure [4, 31]: without any direct effect
- Systemic Vascular Resistance [4, 31]: without any direct effect
- Pulmonary Arterial Pressure [4, 32]: significantly decreasing
- Pulmonary Vascular Resistance [4, 32]: significantly decreasing
- release of tissue-type plasminogen activator (tPA) [5]: profound acute release; also recorded: marked release
- Chloride secretion (Airway mucosa [6]): Increased
- Ciliary beat frequency (Airway mucosa [6]): Increased
- Mucus secretion (Airway mucosa [6]): Increased
- Surfactant secretion (Airway mucosa [6]): Increased
- Water secretion (Airway mucosa [6]): Increased
- Cardiac Output [7, 33]: Increase
- Heart Rate [7, 33]: Increase
- Pulmonary Arterial Pressure [7, 33]: Decrease
- Pulmonary Vascular Resistance [7, 33]: Decrease
- Systemic Arterial Pressure [7, 33]: Decrease
- Systemic Vascular Resistance [7, 33]: Decrease
- Cardiac Output [7, 34]: Small Increase
- Heart Rate [7, 34]: No Change
- Pulmonary Arterial Pressure [7, 34]: Decrease
- Pulmonary Vascular Resistance [7, 34]: Decrease
- Systemic Arterial Pressure [7, 34]: did not alter; also recorded: No Change
- Systemic Vascular Resistance [7, 34]: Small Decrease
- whole blood ATP concentration, higher than the pretreatment values ([8]; 50 microgram/kg/min): 63%
- whole blood ATP concentration, higher than the pretreatment values ([8]; 75 microgram/kg/min): 67%
- whole blood ATP concentration, higher than the pretreatment values ([8]; 100 microgram/kg/min): 113%
- blood concentrations of ATP between 24 and 96 hr of the infusion ([8]; in vivo): relatively constant or slightly declined
- Anaesthetic requirement [9]: Reduced
- Pain [9]: Reduced
- survival [10]: significant positive effects
- SA + AV node conduction [11]: Inhibited
- Supraventricular tachycardias [11]: Inhibited
- Mucociliary clearance (Airway mucosa [12]): Increased
- Chloride secretion (Airway mucosa [12]): Increased
- hematologic, renal, hepatic, or gastrointestinal toxicity [13, 35]: No significant
- patients exhibiting stable disease after treatment [13, 35]: majority of patients
- tumor shrinking [13, 35]: no significant
- overall survival ([13]; as compared with historical data): beneficial effects
- patient performance status ([13]; in vivo): beneficial effects
- weight gain ([13]; in vivo): beneficial effects
- tissue injury during reperfusion after a preceding period of ischemia [14]: protective effects
- Cardiac Output [15]: enhances
- portal and total hepatic blood flow [15]: enhances
- renal and hepatic microcirculation [15]: enhances
- several metabolic functions [16]: beneficial
- Cancer treatment: Weight loss (Tumor [17]): Inhibited
- Chemotherapy efficacy (Tumor [17]): Increased
- Radiotherapy damage (Tumor [17]): Reduced
- Radiotherapy efficacy (Tumor [17]): Increased
- Radiotherapy survival rate (Tumor [17]): Increased
- Tumor growth (Tumor [17]): Inhibited
- stability of the final ATP solutions at room temperature ([18]; final infusion solution 8 mg/ml in 0.5 normal saline, room temperature): at least 96 hours
- stability of the sodium salt in aqueous solution ([18]; pH 6.7-7.2): stable
- protecting the intestinal mucosal structure and function [19]: effective
- Shock: Survival rate [20]: Increased
- Glycogenolysis [21]: Increased
- Shock: Organ function [22]: Improved
- Shock: Survival rate [22]: Increased
- Shock: Organ function [23]: Improved
- Pulmonary hypertension [24]: Reduced
- Chemotherapy efficacy (Tumor [25]): Increased
- Radiotherapy damage (Tumor [25]): Reduced
- Radiotherapy efficacy (Tumor [25]): Increased
- Tumor growth (Tumor [25]): Inhibited
- Cancer treatment: Weight loss (Tumor [26]): Inhibited
- Tumor growth (Tumor [26]): Inhibited
- maximum tolerated dose ([27]; 96-hr infusions, advanced non-small cell lung cancer): 50 microgram/kg/min
- highest dose easily tolerated ([27]; patients suffering from other cancers): 100 microgram/kg/min
- Pulmonary hypertension [28]: Reduced
- Anaesthetic requirement [29]: Reduced
- Blood pressure during surgery [29]: Reduced
- Opioid requirement after surgery [29]: Reduced
- Pain [29]: Reduced
- children in whom hypertension crises were completely resolved and hemodynamic stability restored [30]: 4 children

SMILES: Nc1ncnc2c1ncn2[C@@H]1O[C@H](CO)[C@@H](O)[C@H]1O [adenosine, reference compound]
- SA + AV node conduction (SA + AV node): Inhibited
- Chloride secretion (Airway mucosa [6]): Increased
- Ciliary beat frequency (Airway mucosa [6]): Increased
- Mucus secretion (Airway mucosa [6]): Increased
- Surfactant secretion (Airway mucosa [6]): Increased
- Water secretion (Airway mucosa [6]): Increased
- solubility in isotonic aqueous solutions of sodium chloride [1]: high solubility
- Mucociliary clearance (Airway mucosa [12]): Increased
- Chloride secretion (Airway mucosa [12]): Increased
- Cancer treatment: Weight loss (Tumor [17]): Inhibited
- Chemotherapy efficacy (Tumor [17]): Increased
- Radiotherapy damage (Tumor [17]): Reduced
- Radiotherapy efficacy (Tumor [17]): Increased
- Radiotherapy survival rate (Tumor [17]): Increased
- Tumor growth (Tumor [17]): Inhibited
- Chemotherapy efficacy (Tumor [25]): Increased
- Radiotherapy damage (Tumor [25]): Reduced
- Radiotherapy efficacy (Tumor [25]): Increased
- Tumor growth (Tumor [25]): Inhibited
- Cancer treatment: Weight loss (Tumor [26]): Inhibited
- Tumor growth (Tumor [26]): Inhibited

SMILES: Nc1ncnc2c1ncn2[C@@H]1O[C@H](COP(=O)(O)O)[C@@H](O)[C@H]1O [AMP, adenosine 5′-monophosphate]
- solubility in isotonic aqueous solutions of sodium chloride [1]: high solubility
